Assay results as given in PubChem BioAssay AID248 (DTP/NCI, 2004).
Toxic doses and inconclusive results are not listed. No stated cut-off is given here; in the data, active means T/C of 150% or more; inactive means T/C below 125%.

Tested on: L1210 leukemia ip in BDF1 mice, survival T/C
Test: NCI In Vivo Anticancer Drug Screen. Data for tumor model L1210 Leukemia (intraperitoneal) in B6D2F1 (BDF1) mice
Conditions: endpoint: mean survival time, higher = longer survival
How it was run: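 Read-out is survival time, reported as the treated-group measurement over the vehicle-control measurement.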

[1] = dose: 100.0 mg/kg/injection, schedule: Q04DX003 (ip), vehicle: Klucel (hydroxypropylcellulose) (HPC)
[2] = dose: 200.0 mg/kg/injection, schedule: Q04DX003 (ip), vehicle: Klucel (hydroxypropylcellulose) (HPC)
[3] = dose: 400.0 mg/kg/injection, schedule: Q04DX003 (ip), vehicle: Klucel (hydroxypropylcellulose) (HPC)
[4] = dose: 100.0 mg/kg/injection, schedule: Q04DX003 (ip), vehicle: saline with Tween-80
[5] = dose: 200.0 mg/kg/injection, schedule: Q04DX003 (ip), vehicle: saline with Tween-80
[6] = dose: 400.0 mg/kg/injection, schedule: Q04DX003 (ip), vehicle: saline with Tween-80
[7] = dose: 100.0 mg/kg/injection, schedule: Q01DX001 (ip), vehicle: carboxymethylcellulose (CMC)
[8] = dose: 200.0 mg/kg/injection, schedule: Q01DX001 (ip), vehicle: carboxymethylcellulose (CMC)
[9] = dose: 400.0 mg/kg/injection, schedule: Q01DX001 (ip), vehicle: carboxymethylcellulose (CMC)
[10] = dose: 100.0 mg/kg/injection, schedule: Q01DX009 (ip), vehicle: saline with Tween-80
[11] = dose: 200.0 mg/kg/injection, schedule: Q01DX009 (ip), vehicle: saline with Tween-80
[12] = dose: 100.0 mg/kg/injection, schedule: Q04DX003 (ip), vehicle: saline
[13] = dose: 100.0 mg/kg/injection, schedule: Q01DX009 (ip), vehicle: Klucel (hydroxypropylcellulose) (HPC)
[14] = dose: 200.0 mg/kg/injection, schedule: Q01DX009 (ip), vehicle: Klucel (hydroxypropylcellulose) (HPC)
[15] = dose: 400.0 mg/kg/injection, schedule: Q01DX009 (ip), vehicle: Klucel (hydroxypropylcellulose) (HPC)

Measured: T/C

CCCCCC#CC(=O)OC(C)C
inactive: dose: 100.0 mg/kg/injection, schedule: Q04DX002 (ip), vehicle: saline with Tween-80 102 % of control | dose: 200.0 mg/kg/injection, schedule: Q04DX002 (ip), vehicle: saline with Tween-80 102 % of control | dose: 400.0 mg/kg/injection, schedule: Q04DX002 (ip), vehicle: saline with Tween-80 102 % of control

CCc1ncc(C(C)(O)c2ccc(Cl)cc2)n1Cc1ccccc1 (stereo not drawn)
inactive: [1] 94 % of control | [2] 92 % of control | [3] 89 % of control

COCCOCCOC(C)Oc1ccc(C(=O)OC)cc1 (stereo not drawn)
inactive: dose: 100.0 mg/kg/injection, schedule: Q04DX002 (ip), vehicle: saline 105 % of control | dose: 200.0 mg/kg/injection, schedule: Q04DX002 (ip), vehicle: saline 92 % of control | dose: 400.0 mg/kg/injection, schedule: Q04DX002 (ip), vehicle: saline 108 % of control

CCN(CC)CCNc1nc2ccc(C(=O)O)cc2s1
inactive: dose: 75.0 mg/kg/injection, schedule: Q01DX001 (ip), vehicle: saline 100 % of control | dose: 150.0 mg/kg/injection, schedule: Q01DX001 (ip), vehicle: saline 98 % of control | dose: 300.0 mg/kg/injection, schedule: Q01DX001 (ip), vehicle: saline 94 % of control

CCCCN1COC(OCC)C(C)(C)C1 (stereo not drawn)
inactive: dose: 75.0 mg/kg/injection, schedule: Q01DX009 (ip), vehicle: saline 116 % of control | dose: 150.0 mg/kg/injection, schedule: Q01DX009 (ip), vehicle: saline 113 % of control | dose: 300.0 mg/kg/injection, schedule: Q01DX009 (ip), vehicle: saline 112 % of control

Oc1[nH]c(=S)sc1/C=C1\C=NN=N1
inactive: dose: 100.0 mg/kg/injection, schedule: Q01DX001 (ip), vehicle: other 108 % of control | dose: 200.0 mg/kg/injection, schedule: Q01DX001 (ip), vehicle: other 97 % of control | dose: 400.0 mg/kg/injection, schedule: Q01DX001 (ip), vehicle: other 101 % of control

C/C(=N/Nc1ccc([N+](=O)[O-])cc1[N+](=O)[O-])c1ccccc1
inactive: [4] 88 % of control | [5] 93 % of control | [6] 90 % of control

C#CC(OC(=O)c1cc([N+](=O)[O-])cc([N+](=O)[O-])c1)C1OC(C)(C)OC1C1COC(C)(C)O1 (stereo not drawn)
inactive: [7] 106 % of control | [8] 106 % of control | [9] 106 % of control

O=C(Nc1cccc(C(F)(F)F)c1)Nc1ccc([N+](=O)[O-])cc1Cl
inactive: dose: 100.0 mg/kg/injection, schedule: Q01DX009 (ip), vehicle: gum acacia 88 % of control | dose: 200.0 mg/kg/injection, schedule: Q01DX009 (ip), vehicle: gum acacia 97 % of control | dose: 400.0 mg/kg/injection, schedule: Q01DX009 (ip), vehicle: gum acacia 96 % of control

Cc1ccc(S(=O)(=O)C2CCCCC2Cl)cc1 (stereo not drawn)
inactive: [7] 109 % of control | [8] 102 % of control | [9] 98 % of control

CC(=O)OC1Cc2ccccc21 (stereo not drawn)
inactive: [10] 96 % of control | [4] 95 % of control | [11] 109 % of control | [5] 96 % of control | dose: 400.0 mg/kg/injection, schedule: Q01DX009 (ip), vehicle: saline with Tween-80 100 % of control | [6] 98 % of control

CC1=CCc2c(NS(=O)(=O)N(C)C)ccc(NS(=O)(=O)N(C)C)c2C1
inactive: dose: 100.0 mg/kg/injection, schedule: Q01DX001 (ip), vehicle: Klucel (hydroxypropylcellulose) (HPC) 101 % of control | [1] 94 % of control | dose: 200.0 mg/kg/injection, schedule: Q01DX001 (ip), vehicle: Klucel (hydroxypropylcellulose) (HPC) 97 % of control | [2] 93 % of control | dose: 400.0 mg/kg/injection, schedule: Q01DX001 (ip), vehicle: Klucel (hydroxypropylcellulose) (HPC) 97 % of control | [3] 91 % of control

CC1(C)/C(=C/c2ccccc2)C(=O)c2ccccc21
inactive: dose: 100.0 mg/kg/injection, schedule: Q01DX009 (ip), vehicle: saline 101 % of control | [12] 96 % of control | dose: 200.0 mg/kg/injection, schedule: Q01DX009 (ip), vehicle: saline 96 % of control | dose: 200.0 mg/kg/injection, schedule: Q04DX003 (ip), vehicle: saline 98 % of control | dose: 400.0 mg/kg/injection, schedule: Q01DX009 (ip), vehicle: saline 102 % of control | dose: 400.0 mg/kg/injection, schedule: Q04DX003 (ip), vehicle: saline 102 % of control

O=C(CCn1cccc1)c1csc2ccccc12
inactive: dose: 10.0 mg/kg/injection, schedule: Q01DX001 (ip), vehicle: carboxymethylcellulose (CMC) 97 % of control | dose: 20.0 mg/kg/injection, schedule: Q01DX001 (ip), vehicle: carboxymethylcellulose (CMC) 98 % of control | dose: 40.0 mg/kg/injection, schedule: Q01DX001 (ip), vehicle: carboxymethylcellulose (CMC) 100 % of control | dose: 80.0 mg/kg/injection, schedule: Q01DX001 (ip), vehicle: carboxymethylcellulose (CMC) 100 % of control | [8] 88 % of control

O=C(O)CCC(=O)Nc1ccc(F)cc1
inactive: [13] 103 % of control | [14] 93 % of control | [15] 93 % of control

N#Cc1ccc(Cl)cc1.N#Cc1ccc(Cl)cc1.[Cl][Pt][Cl]
inactive: dose: 6.25 mg/kg/injection, schedule: Q04DX003 (ip), vehicle: water 109 % of control | dose: 12.5 mg/kg/injection, schedule: Q04DX003 (ip), vehicle: water 105 % of control | dose: 25.0 mg/kg/injection, schedule: Q04DX003 (ip), vehicle: water 107 % of control | dose: 50.0 mg/kg/injection, schedule: Q04DX003 (ip), vehicle: water 109 % of control

CC(=O)OI(OC(C)=O)c1ccc(-c2ccccc2)cc1
inactive: [13] 91 % of control | [14] 102 % of control

CCN(CC)CC(=O)NCC(CCN1CCCCC1)(CCN1CCCCC1)c1cccc2ccccc12
inactive: dose: 25.0 mg/kg/injection, schedule: Q01DX009 (ip), vehicle: saline 96 % of control | dose: 50.0 mg/kg/injection, schedule: Q01DX009 (ip), vehicle: saline 104 % of control | [12] 110 % of control

O=c1cc(Nc2ccc(Cl)cc2)[nH]c(=O)[nH]1
inactive: dose: 100.0 mg/kg/injection, schedule: Q01DX001 (ip), vehicle: gum acacia 101 % of control | dose: 400.0 mg/kg/injection, schedule: Q01DX001 (ip), vehicle: gum acacia 101 % of control

CSC(=S)NCC(=O)O
inactive: dose: 50.0 mg/kg/injection, schedule: Q01DX009 (ip), vehicle: saline with Tween-80 89 % of control | [10] 89 % of control | [11] 101 % of control

CCOC(=O)C1/C(=N\N=C2\c3c(nnp3N(CCOS(C)(=O)=O)CCOS(C)(=O)=O)C(C(=O)OCC)C(c3ccc(OC(C)=O)cc3)C2C(=O)OCC)c2c(nnp2N(CCOS(C)(=O)=O)CCOS(C)(=O)=O)C(C(=O)OCC)C1c1ccc(OC(C)=O)cc1 (stereo not drawn)
inactive: dose: 50.0 mg/kg/injection, schedule: Q01DX001 (ip), vehicle: saline 103 % of control | dose: 100.0 mg/kg/injection, schedule: Q01DX001 (ip), vehicle: saline 109 % of control | dose: 200.0 mg/kg/injection, schedule: Q01DX001 (ip), vehicle: saline 109 % of control | dose: 400.0 mg/kg/injection, schedule: Q01DX001 (ip), vehicle: saline 107 % of control

O=C(NO)c1cnccn1
inactive: dose: 296.0 mg/kg/injection, schedule: Q01DX015 (ip), vehicle: water 92 % of control | dose: 666.0 mg/kg/injection, schedule: Q01DX015 (ip), vehicle: water 118 % of control | dose: 1000.0 mg/kg/injection, schedule: Q01DX015 (ip), vehicle: water 120 % of control

COC(=O)C1CC2OC2C(C)C1C(=O)OC (stereo not drawn)
inactive: [13] 95 % of control | [14] 103 % of control | [15] 105 % of control

CC1(C)C(=O)CC[C@@]2(C)C1=CC[C@@H]1[C@@H]2CC[C@@]2(C)[C@H]1CC[C@]2(C)O
inactive: dose: 50.0 mg/kg/injection, schedule: Q01DX Z (sc), vehicle: steriod suspending solution 91 % of control | dose: 250.0 mg/kg/injection, schedule: Q01DX Z (sc), vehicle: steriod suspending solution 96 % of control | dose: 500.0 mg/kg/injection, schedule: Q01DX Z (sc), vehicle: steriod suspending solution 101 % of control
